Where a name gives a salt, the structure may show the parent alone.
How the values were obtained:
[1] = tested on: human lung cancer cell line NCI-H441; assay: Antitumor effect potentiating activity for gemcitabine hydrochloride, NCI-H441 subcutaneously transplanted model (nude mice); format: in vivo, human; nude mice
Protocol: (§1) As an index of the antitumor effect, the TV on Day 15 was measured for each medicament treated group, and the relative tumor volume (RTV) for Day 1 and T/C (%) were calculated by the following formulas to evaluate the antitumor effect.
(§2) TV (mm^3)=(Major axis×minor axis^2)/2
(§3) RTV=(TV on Day 15)/(TV on Day 1)
(§4) T/C (%)=(Mean RTV value of test solution administered group)/(mean RTV value of control group)×100
A human lung cancer cell line (NCI-H441) was transplanted into the right chest of a 5- to 6-week old male BALB/cA Jcl-nu mouse, and the mouse was used in the same manner as described in Test Example 1.
The test solution for a gemcitabine hydrochloride (GEMZAR, manufactured by Eli Lilly and Co.) single administration group was prepared such that the administered dose would be 240 mg/kg/day. Furthermore, the test solution of the compound (1) was prepared such that the administered dose would be 200 mg/kg/day.
The compound (1) was orally administered every day for 14 consecutive days from Day 1, and gemcitabine hydrochloride was administered on Day 1 and Day 8 through the mouse tail vein. Ina combined administration group, 200 mg/kg/day of the compound (1) and 240 mg/kg/day of gemcitabine hydrochloride were administered, and the effects were evaluated in the same manner as described in Test Example 1.

[2] = tested on: human colorectal cancer cell line HT-29; assay: Antitumor effect potentiating activity for irinotecan hydrochloride, HT-29 subcutaneously transplanted model (nude mice); format: in vivo, human; nude mice; conditions: HT-29, nude mice, Day 15
Protocol: as §1, §2, §3, §4
(§5) Furthermore, as an index of toxicity, the body weight [BW] was measured over time, and the mean body weight change [BWC (%)] up to Day 15 with respect to Day 1 was calculated by the following formula (n: day of body weight measurement carried out at a rate of two times/week, and the final day of measurement corresponds to Day 15, which is the final evaluation day).
(§6) BWC (%)=[(BW on Day n)−(BW on Day 1)]/(BW on Day 1)×100

[3] = tested on: human gastric cancer cell line NCI-N87; assay: Antitumor effect potentiating activity for lapatinib, NCI-N87 subcutaneously transplanted model (nude mice); format: in vivo, human; nude mice; conditions: 14 days
Protocol: as §1, §2, §3, §4
A human gastric cancer cell line (NCI-N87) was transplanted into the right chest of a 5- to 6-week old male BALB/cA Jcl-nu mouse, and the mouse was used in the same manner as described in Test Example 1. The test solution for a lapatinib (manufactured by LC Laboratories, Inc.) single administration group was prepared such that the amount of administration would be 100 mg/kg/day. Furthermore, the test solution of the compound (1) was prepared such that the amount of administration would be 200 mg/kg/day of the compound (1).
(§7) The compound (1) and lapatinib were orally administered every day for 14 consecutive days from Day 1. In a combined administration group, 200 mg/kg/day of the compound (1) and 100 mg/kg/day of lapatinib were administered, and the effects were evaluated in the same manner as described in Test Example 1.

[4] = tested on: human lung cancer cell line NCI-H460; assay: Antitumor effect potentiating activity for paclitaxel, NCI-H460 subcutaneously transplanted model (nude mice); format: in vivo, human; nude mice
Protocol: A human lung cancer cell line (NCI-H460) was transplanted into the right chest of a 5- to 6-week old male BALB/cA Jcl-nu mouse. After the tumor transplantation, the major axis (mm) and the minor axis (mm) of the tumor were measured to calculate the tumor volume (TV), and then mice were allocated to each treatment group such that the average TV's of each group would be uniform. The day on which this grouping (n=5) was performed was designated as Day 1.
The test solution for a paclitaxel (TAXOL injection, Bristol Myers K.K.) single administration group was prepared such that the administered dose of paclitaxel would be 60 mg/kg/day. Furthermore, the test solution for a compound (1) single administration group was prepared such that the administered dose would be 200 mg/kg/day. The compound (1) was orally administered every day for 14 consecutive days from Day 1, and paclitaxel was administered on Day 1 through the mouse tail vein. In a combined administration group, 200 mg/kg/day of the compound (1) and 60 mg/kg/day of paclitaxel were administered.
as §1, §2, §3, §4, §5, §6

[5] = tested on: human gastric cancer cell line NUGC-4; assay: Antitumor effect potentiating activity for paclitaxel, NUGC-4 subcutaneously transplanted model (nude mice); format: in vivo, human; nude mice; conditions: NUGC-4, nude mice, Day 15
Protocol: as §1, §2, §3, §4, §5, §6
A human gastric cancer cell line (NUGC-4) was transplanted into the right chest of a 5- to 6-week old male BALB/cA Jcl-nu mouse, and the mouse was used in the same manner as described in Test Example 1.
The test solution for a paclitaxel (TAXOL injection, manufactured by Bristol Myers K.K.) single administration group was prepared such that the amount of administration of paclitaxel would be 60 mg/kg/day.
The test solution of the compound (1) was prepared such that the amount of administration would be 12.5 mg/kg/day of the compound (1). In a combined administration group, 12.5 mg/kg/day of the compound (1) and 60 mg/kg/day of paclitaxel were administered. The compound (1) was orally administered every day for 14 consecutive days from Day 1, paclitaxel was administered on Day 1 through the mouse tail vein, and evaluation was made in the same manner as described in Test Example 1.
Furthermore, the body weight changes over time, which is an indicator of toxicity, were also evaluated in the same manner as described in Test Example 1.

[6] = tested on: human gastric cancer cell line NUGC-4; assay: Antitumor effect potentiating activity for TS-1, NUGC-4 subcutaneously transplanted model (nude rats); format: in vivo, human; nude rats; conditions: NUGC-4, nude rats, Day 15, 14 days
Protocol: as §1, §2, §3, §4
A human gastric cancer cell line (NUGC-4) was transplanted into the right chest of a 5- to 6-week old male nude rat, and the rat was used in the same manner as described in Test Example 1. The test solution for a TS-1 (TS-1, manufactured by Taiho Pharmaceutical Co., Ltd.) single administration group was prepared such that the amount of administration of tegafur would be 18 mg/kg/day. Furthermore, the test solution of the compound (1) was prepared such that the amount of administration would be 250 mg/kg/day and 50 mg/kg/day.
as §7, with “TS-1” for “lapatinib”, “250 mg/kg/day and 50” for “200”, “18” for “100”

[7] = Day 15, 240 mg/kg/day, tail vein Day 1 and Day 8
[8] = Day 15, lapatinib 100 mg/kg/day oral
[9] = Day 15, paclitaxel 60 mg/kg/day, tail vein Day 1
[10] = paclitaxel 60 mg/kg/day, tail vein Day 1
[11] = Day 15, 200 mg/kg/day oral, 14 consecutive days

Nc1ccn([C@@H]2O[C@H](CO)[C@@H](O)C2(F)F)c(=O)n1 [Gemcitabine hydrochloride, gemcitabine hydrochloride, reference compound]
RTV (mean ± standard deviation) [1, 7]: 1.10 ± 0.13
T/C (%) [1, 7]: 16%

CCc1c2c(nc3ccc(OC(=O)N4CCC(N5CCCCC5)CC4)cc13)-c1cc3c(c(=O)n1C2)COC(=O)[C@]3(O)CC [Irinotecan hydrochloride, irinotecan hydrochloride, reference compound]
RTV (mean ± standard deviation) ([2]; 50 mg/kg/day, tail vein Day 1, Day 5, Day 9): 2.47 ± 0.40

CS(=O)(=O)CCNCc1ccc(-c2ccc3ncnc(Nc4ccc(OCc5cccc(F)c5)c(Cl)c4)c3c2)o1 [Lapatinib, lapatinib, reference compound]
RTV (mean ± standard deviation) [3, 8]: 1.56 ± 0.18
T/C (%) [3, 8]: 62%

CC(=O)O[C@H]1C(=O)[C@@]2(C)[C@H]([C@H](OC(=O)c3ccccc3)[C@]3(O)C[C@H](OC(=O)[C@H](O)[C@@H](NC(=O)c4ccccc4)c4ccccc4)C(C)=C1C3(C)C)[C@]1(OC(C)=O)CO[C@@H]1C[C@@H]2O [Paclitaxel, paclitaxel, reference compound]
RTV (mean ± standard deviation) [4, 9]: 3.67 ± 0.42
T/C (%) [4, 9]: 41%
RTV (mean ± standard deviation) [5, 10]: 5.77 ± 0.96
T/C (%) [5, 10]: 83%

CNC(=O)c1cc2c(Oc3ccc(NC(=S)NC(=O)Cc4ccccc4)cc3F)ccnc2cc1OC [compound (1), 4-(2-Fluoro-4-(3-(2-phenylacetyl)thioureido)phenoxy)-7-methoxy-N-methylquinoline-6-carboxamide]
RTV (mean ± standard deviation) ([6]; 50 mg/kg/day oral): 2.36 ± 0.44
T/C (%) ([6]; 50 mg/kg/day oral): 14%
RTV (mean ± standard deviation) ([6]; 250 mg/kg/day oral): 1.60 ± 0.33
T/C (%) ([6]; 250 mg/kg/day oral): 10%
RTV (mean ± standard deviation) [4, 11]: 3.02 ± 0.63
T/C (%) [4, 11]: 34%
RTV (mean ± standard deviation) [1, 11]: 1.26 ± 0.15
T/C (%) [1, 11]: 18%
RTV (mean ± standard deviation) ([2]; 50 mg/kg/day oral, 14 days): 1.83 ± 0.29
T/C (%) ([2]; 50 mg/kg/day oral, 14 days): 44%
RTV (mean ± standard deviation) ([3]; Day 15, 200 mg/kg/day oral): 1.31 ± 0.23
T/C (%) ([3]; Day 15, 200 mg/kg/day oral): 52%
RTV (mean ± standard deviation) ([5]; 12.5 mg/kg/day oral, 14 days): 6.63 ± 1.91
T/C (%) ([5]; 12.5 mg/kg/day oral, 14 days): 95%

From patent publication US20140378409A1, “EFFECT POTENTIATOR FOR ANTITUMOR AGENTS” (TAIHO PHARMACEUTICAL CO., LTD., priority 2011, published 2014)
